Assay results: article PMC10122656, “Siglec-6 mediates the uptake of extracellular vesicles through a noncanonical glycolipid binding pocket” (Nature Communications, 2023)
Substitutions are numbered along the chain they refer to. “And” between values parts separate entries of the source, which are not always exact repeats. Equal values may be shown once.

How the values were obtained:
Experiment in all cases: Cell assay (liposome/EV binding, flow cytometry)
Format in all cases: cell-based
[1] = target: T1, Siglec-11 R120A CHO cells (Homo sapiens, UniProt Q96RL6, R132A); settings: Sig-11 R120A; 3 mol% ganglioside liposomes; replicates
T1 construct: expressed in transfected cells
T1 sequence (Q96RL6 28-698 R132A): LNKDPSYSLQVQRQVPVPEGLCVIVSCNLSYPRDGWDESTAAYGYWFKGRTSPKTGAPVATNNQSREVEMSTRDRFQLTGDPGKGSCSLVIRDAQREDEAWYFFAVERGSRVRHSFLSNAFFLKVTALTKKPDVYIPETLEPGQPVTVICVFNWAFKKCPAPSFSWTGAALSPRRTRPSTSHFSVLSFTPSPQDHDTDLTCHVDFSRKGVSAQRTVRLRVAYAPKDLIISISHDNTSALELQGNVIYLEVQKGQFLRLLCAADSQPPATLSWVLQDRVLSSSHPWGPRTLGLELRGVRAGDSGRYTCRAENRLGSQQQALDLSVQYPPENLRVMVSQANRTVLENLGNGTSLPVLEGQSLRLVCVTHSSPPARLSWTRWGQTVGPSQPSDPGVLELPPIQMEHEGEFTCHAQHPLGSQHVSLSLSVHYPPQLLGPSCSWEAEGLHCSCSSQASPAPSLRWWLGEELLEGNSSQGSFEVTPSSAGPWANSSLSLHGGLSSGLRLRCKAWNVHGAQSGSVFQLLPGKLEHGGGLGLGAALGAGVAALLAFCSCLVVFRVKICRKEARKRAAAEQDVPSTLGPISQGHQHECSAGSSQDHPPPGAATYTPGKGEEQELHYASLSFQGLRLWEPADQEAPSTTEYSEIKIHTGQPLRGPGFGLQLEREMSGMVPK
Outline: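 Extruded PEGylated DSPC/cholesterol liposomes (100 nm filter; 130 ± 35 nm) bearing Siglec ligand and AF647 lipids. Cells + 50 µM liposome or 50 µg/mL EV, DMEM F12/5% FBS, 37 °C, 30 min; washed; anti-Siglec 1:250, ice 30 min; flow, Siglec+ gate.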

Siglec-11 WT CHO cells = target: T2, Siglec-11 WT CHO cells (Homo sapiens, UniProt Q96RL6); settings: Sig-11 WT; 3 mol% ganglioside liposomes; replicates
T2 construct: expressed in transfected cells
T2 sequence (Q96RL6 28-698): T1 sequence (Q96RL6 28-698 R132A) with A105R
Outline: (§1)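 Cells are incubated for 30 min at 37 °C with ligand-displaying liposomes (50 µM lipid) or EVs (50 µg/mL protein) in DMEM F12 containing 5% FBS. After washing and anti-Siglec staining on ice, liposome binding is quantified by flow cytometry within the Siglec-positive population.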

Siglec-8 R125A CHO cells = target: T3, Siglec-8 R125A CHO cells (Homo sapiens, UniProt Q9NYZ4, R125A); settings: Sig-8 R125A; 3 mol% ganglioside liposomes; replicates
T3 construct: expressed in transfected cells
Outline: as §1

T3 sequence (Q9NYZ4 17-499 R125A): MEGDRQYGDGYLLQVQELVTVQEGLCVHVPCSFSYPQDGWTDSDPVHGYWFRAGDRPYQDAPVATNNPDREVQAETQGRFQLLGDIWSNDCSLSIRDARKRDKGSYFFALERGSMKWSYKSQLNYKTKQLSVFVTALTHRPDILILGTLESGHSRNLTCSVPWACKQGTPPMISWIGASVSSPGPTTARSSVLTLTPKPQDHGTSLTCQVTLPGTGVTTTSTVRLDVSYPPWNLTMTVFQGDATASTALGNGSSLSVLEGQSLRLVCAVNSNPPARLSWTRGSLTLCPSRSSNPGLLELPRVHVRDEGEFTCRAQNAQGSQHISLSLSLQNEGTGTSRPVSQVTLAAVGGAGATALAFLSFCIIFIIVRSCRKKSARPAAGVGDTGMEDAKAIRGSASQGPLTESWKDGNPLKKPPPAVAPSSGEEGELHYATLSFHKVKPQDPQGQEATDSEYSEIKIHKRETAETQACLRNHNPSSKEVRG

Substance	log10(MFI AF647) of GLL relative to log10(MFI AF647) of the same GLL against UT CHO cells (Fig. 2a) [1]	log10(MFI AF647) of GLL relative to log10(MFI AF647) of the same GLL against UT CHO cells (Fig. 2a) (Siglec-11 WT CHO cells)	log10(MFI AF647) of GLL relative to log10(MFI AF647) of the same GLL against UT CHO cells (Fig. 2a) (Siglec-8 R125A CHO cells)
GD1a	-0.11 and -0.13 and -0.12 (2×)	-0.11 (2×) and -0.07 and -0.09	-0.1 and -0.13 (3×)
GD1b	-0.11 (2×) and -0.12 (2×)	-0.1 (3×) and -0.09	-0.14 and -0.15 and -0.17 and -0.19
GD3	-0.1 and -0.11 and -0.12 (2×)	-0.13 and -0.11 and -0.09 (2×)	-0.04 (2×) and -0.08 (2×)
GM1	0.1 and 0.05 and 0.07 and 0.13	0.11 and 0.12 and 0.14 and 0.13	-0.02 and -0.06 and -0.08 and -0.03
GM2	-0.07 (2×) and -0.06 (2×)	-0.06 and -0.03 (2×) and -0.04	-0.12 and -0.14 and -0.17 (2×)
GM3	-0.13 (3×) and -0.12	-0.1 and -0.09 and -0.11 and -0.12	-0.18 and -0.17 and -0.2 (2×)
GM4	-0.11 (2×) and -0.1 (2×)	-0.11 and -0.09 (2×) and -0.07	-0.14 (3×) and -0.16
GQ1b	-0.19 (2×) and -0.22 and -0.18	-0.25 and -0.21 and -0.2 and -0.24	0.01 and -0.02 and -0.04 and -0.05
GT1b	-0.17 (2×) and -0.16 and -0.19	-0.17 and -0.15 and -0.13 (2×)	-0.22 (2×) and -0.23 and -0.24
